In one assay the target is PARP1 (Homo sapiens (Human), UniProt P09874). The assay is described as follows: PARP1 FP Assay. The note with it: PARP1 fluorescence polarization probe assay, 4 hours at room temperature. Format: binding. How it is done:
Compounds were dissolved and 4-fold serially diluted in DMSO. Compounds were transferred by an Echo to the assay plate to reach final concentrations ranging from 10 μM to 0.01 nM.
Assay buffer was composed of 50 mM Tris pH 8.0, 10 mM MgCl2, 150 mM NaCl and 0.001% Triton X100.

The next assay has as its target PARP2 (Homo sapiens (Human), UniProt Q9UGN5). The assay is described as follows: PARP2 FP Assay. Format: binding. To be noted: PARP2 fluorescence polarization probe assay, 4 hours at room temperature.
The test system of assay [1] is PARylation level in MDA-MB-436. The assay can be described thus: PARPylation MSD Assay on MDA-MB-436. Format: cell-based. The note with it: Homo sapiens; MDA-MB-436 cells, 4 hours incubation with compound, electrochemiluminescent (MSD) detection of PARylation. How it is done:
Compounds were dissolved and 4-fold serially diluted in DMSO.
Plates were incubated for 1 hour at room temperature, with shaking. […] Plates were incubated for 1 hour at room temperature, with shaking.

Chain of PARP1 (P09874 whole entry): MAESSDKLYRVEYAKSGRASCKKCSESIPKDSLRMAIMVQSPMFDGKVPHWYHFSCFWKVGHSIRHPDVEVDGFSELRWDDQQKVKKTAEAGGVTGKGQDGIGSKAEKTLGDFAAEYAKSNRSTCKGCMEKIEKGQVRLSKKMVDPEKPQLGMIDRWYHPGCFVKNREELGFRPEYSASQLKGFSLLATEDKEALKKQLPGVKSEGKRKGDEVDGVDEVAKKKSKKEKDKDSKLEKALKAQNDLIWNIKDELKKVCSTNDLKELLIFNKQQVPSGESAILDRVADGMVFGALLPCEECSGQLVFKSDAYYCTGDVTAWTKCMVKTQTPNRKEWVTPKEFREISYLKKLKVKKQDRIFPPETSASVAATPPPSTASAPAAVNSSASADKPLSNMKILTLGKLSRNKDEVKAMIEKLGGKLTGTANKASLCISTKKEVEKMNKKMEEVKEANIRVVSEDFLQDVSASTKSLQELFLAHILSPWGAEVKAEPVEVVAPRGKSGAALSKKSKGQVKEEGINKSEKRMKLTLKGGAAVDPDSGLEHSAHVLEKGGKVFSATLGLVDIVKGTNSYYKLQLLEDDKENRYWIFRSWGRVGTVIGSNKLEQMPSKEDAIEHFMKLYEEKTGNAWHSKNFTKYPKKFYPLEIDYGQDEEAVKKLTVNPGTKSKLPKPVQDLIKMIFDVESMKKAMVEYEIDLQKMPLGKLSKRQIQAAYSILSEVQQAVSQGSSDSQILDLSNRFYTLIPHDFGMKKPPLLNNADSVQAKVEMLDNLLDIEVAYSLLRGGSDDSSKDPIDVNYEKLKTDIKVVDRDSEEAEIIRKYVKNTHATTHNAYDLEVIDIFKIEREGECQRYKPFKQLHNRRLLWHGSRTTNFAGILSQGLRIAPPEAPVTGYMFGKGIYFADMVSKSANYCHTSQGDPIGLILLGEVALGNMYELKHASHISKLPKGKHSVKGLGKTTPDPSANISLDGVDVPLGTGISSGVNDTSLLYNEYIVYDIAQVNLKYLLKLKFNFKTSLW
Chain of PARP2 (Q9UGN5 whole entry): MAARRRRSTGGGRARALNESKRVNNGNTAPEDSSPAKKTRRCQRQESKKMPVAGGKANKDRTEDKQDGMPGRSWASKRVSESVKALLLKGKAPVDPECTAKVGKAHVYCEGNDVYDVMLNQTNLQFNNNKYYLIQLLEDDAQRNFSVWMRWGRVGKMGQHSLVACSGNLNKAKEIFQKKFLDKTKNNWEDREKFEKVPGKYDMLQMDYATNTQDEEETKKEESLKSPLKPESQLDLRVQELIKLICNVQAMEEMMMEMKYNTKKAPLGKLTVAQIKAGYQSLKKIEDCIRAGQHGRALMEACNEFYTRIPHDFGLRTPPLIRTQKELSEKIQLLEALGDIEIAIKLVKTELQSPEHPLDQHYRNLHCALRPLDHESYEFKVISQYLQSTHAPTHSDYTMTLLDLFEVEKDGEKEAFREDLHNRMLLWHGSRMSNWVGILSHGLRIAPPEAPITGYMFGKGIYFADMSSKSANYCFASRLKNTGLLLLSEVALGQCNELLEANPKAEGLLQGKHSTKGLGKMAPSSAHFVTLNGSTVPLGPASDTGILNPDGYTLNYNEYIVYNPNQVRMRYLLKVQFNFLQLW

In the case of `CCc1cc2ncc([S@@](=N)(=O)C3CCN(c4ccc(C(=O)NC)nc4)CC3)cc2[nH]c1=O` (single isomer, unassigned) [Compound 2.8], the IC50 against PARP1 was 8.66 nM; against PARP2, more than 10000 nM; in assay [1], 0.515 nM.

Turning to `CCc1cc2ncc(S(=O)(=O)N3CCN(c4ccc(F)cc4F)CC3)cc2[nH]c1=O` [Compound 2.6, 7-((4-(2,4-difluorophenyl)piperazin-1-yl)sulfonyl)-3-ethyl-1,5-naphthyridin-2(1H)-one], the IC50 is more than 10000 nM on PARP1, more than 10000 nM against PARP2 and more than 1000 nM in assay [1].

Take `CCc1cc2ncc([S@](=N)(=O)C3CCN(c4ccc(C(=O)NC)nc4)CC3)cc2[nH]c1=O` (single isomer, unassigned) [Compound 2.7]: the IC50 on PARP1 was 6.89 nM; at PARP2, more than 10000 nM; in assay [1], 10.8 nM.

(Values after patent US20240228486A1, “SULFONE- AND SULFOXIMINE-BASED SELECTIVE PARP1 INHIBITORS” (Enliven Inc., priority 2022, published 2024).)
